Source: patent US20100056508A1, “AMINE DERIVATIVES AND THEIR USE IN BETA-2-ADRENORECEPTOR MEDIATED DISEASES” (ASTRAZENECA AB, priority 2006, published 2010)
Counter-ions that a name gives are not always drawn.

Tests used:
[1] = biological target: T1, recombinant human α1D receptor (Homo sapiens, UniProt P25100); experiment: Adrenergic α1D selectivity assay, [3H]-prazosin binding to membranes; conditions: inhibition of [3H]-prazosin binding, HEK cell membranes, read-out: α1 bind pIC50 (converted)
T1 construct: expressed in transfected cells; host or cells: human embryonic kidney 293 cells (HEK93 [sic]), membranes
T1 sequence (P25100 1-572): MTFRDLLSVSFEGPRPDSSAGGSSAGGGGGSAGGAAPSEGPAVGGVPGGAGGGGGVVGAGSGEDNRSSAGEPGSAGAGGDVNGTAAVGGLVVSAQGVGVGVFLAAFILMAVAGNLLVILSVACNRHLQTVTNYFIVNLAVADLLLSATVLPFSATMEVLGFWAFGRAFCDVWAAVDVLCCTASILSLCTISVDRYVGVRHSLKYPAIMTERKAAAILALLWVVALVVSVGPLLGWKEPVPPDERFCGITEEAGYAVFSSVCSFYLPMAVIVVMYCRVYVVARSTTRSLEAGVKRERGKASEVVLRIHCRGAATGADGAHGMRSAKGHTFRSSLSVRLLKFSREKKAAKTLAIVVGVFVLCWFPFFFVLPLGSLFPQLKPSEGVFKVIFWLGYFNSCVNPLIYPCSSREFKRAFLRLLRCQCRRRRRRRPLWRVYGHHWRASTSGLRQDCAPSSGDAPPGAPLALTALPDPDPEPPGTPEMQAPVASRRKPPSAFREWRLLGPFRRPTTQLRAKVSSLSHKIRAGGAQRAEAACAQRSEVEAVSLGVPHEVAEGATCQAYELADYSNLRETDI
Summary of the method: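 Competition binding on HEK293 membranes with recombinant human α1D receptor, 0.3 nM [3H]-prazosin, 50 mM HEPES/1 mM EDTA pH 7.4, 2 h at room temperature; filtration and scintillation counting. Non-specific binding defined with 10 μM BMY7378. pIC50 from four-parameter logistic fit of specific-binding inhibition.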

[2] = biological target: T2, recombinant human adrenergic beta 1 receptors (Homo sapiens, UniProt P08588); experiment: Adrenergic β1 selectivity assay, [125I]-Iodocyanopindolol binding to membranes; conditions: inhibition of [125I]-Iodocyanopindolol binding, read-out: β1 bind pIC50 (converted)
T2 construct: purchased Euroscreen
Summary of the method: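 Recombinant human β1 membranes in HEPES buffer pH 7.4 with 120 mM NaCl were incubated 2 hours at room temperature with 0.036 nM [^125I]-Iodocyanopindolol. Nonspecific binding defined by 10 μM propranolol; bound radioactivity counted after filtration. pIC50 from four-parameter logistic fit.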

T2 sequence (P08588 whole entry): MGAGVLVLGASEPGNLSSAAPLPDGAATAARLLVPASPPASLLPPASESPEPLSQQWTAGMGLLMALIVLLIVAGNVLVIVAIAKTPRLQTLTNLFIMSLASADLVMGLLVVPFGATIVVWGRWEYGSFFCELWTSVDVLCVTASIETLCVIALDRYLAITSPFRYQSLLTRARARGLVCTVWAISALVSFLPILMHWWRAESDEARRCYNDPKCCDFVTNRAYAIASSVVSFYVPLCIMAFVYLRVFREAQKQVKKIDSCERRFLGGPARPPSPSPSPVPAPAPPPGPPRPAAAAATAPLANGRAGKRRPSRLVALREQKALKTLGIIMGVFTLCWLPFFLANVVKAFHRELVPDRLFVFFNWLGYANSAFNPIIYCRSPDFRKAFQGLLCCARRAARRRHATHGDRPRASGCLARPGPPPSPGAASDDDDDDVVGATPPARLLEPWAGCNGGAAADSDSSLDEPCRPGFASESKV

IC50 [1] [nM] | IC50 [2] [nM] | SMILES
501 | 1260 | O=C1COc2c(CCNCCN(C(=O)CCNCCc3cccc(Cl)c3F)C3CCCCC3)ccc(O)c2N1 [Example 39, 3-(3-Chloro-2-fluorophenethylamino)-N-cyclohexyl-N-(2-(2-(5-hydroxy-3-oxo-3,4-dihydro-2H-benzo[b][1,4]oxazin-8-yl)ethylamino)ethyl)propanamide bis(trifluoroacetate)]
1580 | 3980 | O=C1COc2c(CCNCCN(C(=O)CCOCCc3ccccc3)C3CCCCC3)ccc(O)c2N1 [Example 70, N-Cyclohexyl-N-(2-(2-(5-hydroxy-3-oxo-3,4-dihydro-2H-benzo[b][1,4]oxazin-8-yl)ethylamino)ethyl)-3-phenethoxypropanamide trifluoroacetate]
100 | 251 | O=C1COc2c(CCNCCN(C(=O)CCNCCc3ccc(Cl)cc3)C3CCCCCC3)ccc(O)c2N1 [Example 63, 3-(4-Chlorophenethylamino)-N-cycloheptyl-N-(2-(2-(5-hydroxy-3-oxo-3,4-dihydro-2H-benzo[b][1,4]oxazin-8-yl)ethylamino)ethyl)propanamide bis(trifluoroacetate)]
794 | > 6310 | O=C(CCOCCc1ccccc1)N(CCNCCc1ccc(O)c2[nH]c(=O)ccc12)C1CCCCC1 [Example 2, N-Cyclohexyl-N-(2-(2-(8-hydroxy-2-oxo-1,2-dihydroquinolin-5-yl)ethylamino)ethyl)-3-phenethoxypropanamide]
31.6 | 2000 | CCCC[C@@H](C)N(CCNCCc1ccc(O)c2c1OCC(=O)N2)C(=O)CCNCCc1cc(C)ccc1F [Example 56, (R)-3-(2-Fluoro-5-methylphenethylamino)-N-(hexan-2-yl)-N-(2-(2-(5-hydroxy-3-oxo-3,4-dihydro-2H-benzo[b][1,4]oxazin-8-yl)ethylamino)ethyl)propanamide bis(trifluoroacetate)]
79.4 | 1580 | CCCC[C@@H](C)N(CCNCCc1ccc(O)c2c1OCC(=O)N2)C(=O)CCNCCc1ccccc1Cl [Example 46, (R)-3-(2-Chlorophenethylamino)-N-(hexan-2-yl)-N-(2-(2-(5-hydroxy-3-oxo-3,4-dihydro-2H-benzo[b][1,4]oxazin-8-yl)ethylamino)ethyl)propanamide bis(trifluoroacetate)]
200 | 1260 | CCCC[C@@H](C)N(CCNCCc1ccc(O)c2c1OCC(=O)N2)C(=O)CCNCCc1cc(F)cc(Cl)c1 [Example 50, (R)-3-(3-Chloro-5-fluorophenethylamino)-N-(hexan-2-yl)-N-(2-(2-(5-hydroxy-3-oxo-3,4-dihydro-2H-benzo[b][1,4]oxazin-8-yl)ethylamino)ethyl)propanamide bis(trifluoroacetate)]
79.4 | > 10000 | O=C(CCNCCc1cccc(Cl)c1)N(CCNCCc1ccc(O)c2[nH]c(=O)ccc12)C1CCCCC1 [Example 13, 3-(3-Chlorophenethylamino)-N-cyclohexyl-N-(2-(2-(8-hydroxy-2-oxo-1,2-dihydroquinolin-5-yl)ethylamino)ethyl)propanamide bis(trifluoroacetate)]
31.6 | > 7940 | Cc1cc(CCNCCC(=O)N(CCNCCc2ccc(O)c3c2OCC(=O)N3)C2CCCCC2)ccc1F [Example 40, N-Cyclohexyl-3-(4-fluoro-3-methylphenethylamino)-N-(2-(2-(5-hydroxy-3-oxo-3,4-dihydro-2H-benzo[b][1,4]oxazin-8-yl)ethylamino)ethyl)propanamide bis(trifluoroacetate)]
398 | 3160 | O=C1COc2c(CCNCCN(C(=O)CCNCCc3cccc(F)c3F)C3CCCCC3)ccc(O)c2N1 [Example 36, N-Cyclohexyl-3-(2,3-difluorophenethylamino)-N-(2-(2-(5-hydroxy-3-oxo-3,4-dihydro-2H-benzo[b][1,4]oxazin-8-yl)ethylamino)ethyl)propanamide bis(trifluoroacetate)]
794 | 2510 | O=C1COc2c(CCNCCN(C(=O)CCOCCc3cccc(F)c3)C3CCCCC3)ccc(O)c2N1 [Example 74, N-Cyclohexyl-3-(3-fluorophenethoxy)-N-(2-(2-(5-hydroxy-3-oxo-3,4-dihydro-2H-benzo[b][1,4]oxazin-8-yl)ethylamino)ethyl)propanamide trifluoroacetate]
501 | > 10000 | O=C(CCNCCc1ccc(Cl)cc1)N(CCNCCc1ccc(O)c2[nH]c(=O)ccc12)C1CCCCC1 [Example 14, 3-(4-Chlorophenethylamino)-N-cyclohexyl-N-(2-(2-(8-hydroxy-2-oxo-1,2-dihydroquinolin-5-yl)ethylamino)ethyl)propanamide bis(trifluoroacetate)]
79.4 | 631 | CCCC[C@@H](C)N(CCNCCc1ccc(O)c2c1OCC(=O)N2)C(=O)CCNCCc1ccc(F)c(C)c1 [Example 47, (R)-3-(4-Fluoro-3-methylphenethylamino)-N-(hexan-2-yl)-N-(2-(2-(5-hydroxy-3-oxo-3,4-dihydro-2H-benzo[b][1,4]oxazin-8-yl)ethylamino)ethyl)propanamide bis(trifluoroacetate)]
158 | 1000 | O=C1COc2c(CCNCCN(C(=O)CCNCCc3ccc(F)c(Cl)c3)C3CCCCC3)ccc(O)c2N1 [Example 37, 3-(3-Chloro-4-fluorophenethylamino)-N-cyclohexyl-N-(2-(2-(5-hydroxy-3-oxo-3,4-dihydro-2H-benzo[b][1,4]oxazin-8-yl)ethylamino)ethyl)propanamide bis(trifluoroacetate)]
251 | 12600 | O=C(CCNCCc1cc(F)ccc1F)N(CCNCCc1ccc(O)c2[nH]c(=O)ccc12)C1CCCCC1 [Example 17, N-Cyclohexyl-3-(2,5-difluorophenethylamino)-N-(2-(2-(8-hydroxy-2-oxo-1,2-dihydroquinolin-5-yl)ethylamino)ethyl)propanamide bis(trifluoroacetate)]
39.8 | 251 | Cc1cc(CCNCCC(=O)N(CCNCCc2ccc(O)c3c2OCC(=O)N3)C2CCCCCC2)ccc1F [Example 62, N-Cycloheptyl-3-(4-fluoro-3-methylphenethylamino)-N-(2-(2-(5-hydroxy-3-oxo-3,4-dihydro-2H-benzo[b][1,4]oxazin-8-yl)ethylamino)ethyl)propanamide bis(trifluoroacetate)]
200 | 2510 | CCCC[C@@H](C)N(CCNCCc1ccc(O)c2c1OCC(=O)N2)C(=O)CCNCCc1cccc(F)c1F [Example 53, (R)-3-(2,3-Difluorophenethylamino)-N-(hexan-2-yl)-N-(2-(2-(5-hydroxy-3-oxo-3,4-dihydro-2H-benzo[b][1,4]oxazin-8-yl)ethylamino)ethyl)propanamide bis(trifluoroacetate)]
631 | > 10000 | CC[C@@H](C)N(CCNCCc1ccc(O)c2[nH]c(=O)ccc12)C(=O)CCOCCc1ccccc1.Cl [Example 79, (R)—N-sec-Butyl-N-(2-(2-(8-hydroxy-2-oxo-1,2-dihydroquinolin-5-yl)ethylamino)ethyl)-3-phenethoxypropanamide hydrochloride]
251 | 2000 | O=C1COc2c(CCNCCN(C(=O)CCNCCc3ccc(Cl)cc3)C3CCCCC3)ccc(O)c2N1 [Example 32, 3-(4-Chlorophenethylamino)-N-cyclohexyl-N-(2-(2-(5-hydroxy-3-oxo-3,4-dihydro-2H-benzo[b][1,4]oxazin-8-yl)ethylamino)ethyl)propanamide bis(trifluoroacetate)]
126 | 3160 | O=C1COc2c(CCNCCN(C(=O)CCNCCc3cccc(Cl)c3Cl)C3CCCCC3)ccc(O)c2N1 [Example 29, N-Cyclohexyl-3-(2,3-dichlorophenethylamino)-N-(2-(2-(5-hydroxy-3-oxo-3,4-dihydro-2H-benzo[b][1,4]oxazin-8-yl)ethylamino)ethyl)propanamide bis(trifluoroacetate)]
251 | 1260 | CCCC[C@@H](C)N(CCNCCc1ccc(O)c2c1OCC(=O)N2)C(=O)CCNCCc1ccc(Cl)cc1 [Example 45, (R)-3-(4-Chlorophenethylamino)-N-(hexan-2-yl)-N-(2-(2-(5-hydroxy-3-oxo-3,4-dihydro-2H-benzo[b][1,4]oxazin-8-yl)ethylamino)ethyl)propanamide bis(trifluoroacetate)]

SMILES | IC50 [1] [nM] | IC50 [2] [nM]
O=C1COc2c(CCNCCN(C(=O)CCNCCc3ccc(Cl)c(Cl)c3)C3CCCCC3)ccc(O)c2N1 [Example 30, N-Cyclohexyl-3-(3,4-dichlorophenethylamino)-N-(2-(2-(5-hydroxy-3-oxo-3,4-dihydro-2H-benzo[b][1,4]oxazin-8-yl)ethylamino)ethyl)propanamide bis(trifluoroacetate)] | 251 | 2510
